Assay: particle size distribution measured under wet conditions (Malvern Mastersizer 2000 SM)
Format: physicochemical
Details: stiripentol particles of Example 1 after double recrystallization from toluene
Description: This particle size distribution is measured under wet conditions.

CC(C)(C)C(O)/C=C/c1ccc2c(c1)OCO2 (stereo not shown) [stiripentol, 4-dimethyl-1-[(3,4-methylenedioxy)-phenyl]-1-penten-3-ol]
Diameter of 90% of the particles (d90): ≤ 250 μm

Reference: patent US7750169B2 (Biocodex, priority 2008, dated 2010)
